Measured values: the supplement of paper PMC10307832

How the values were obtained:
Experiment in all cases: relative viability (nuclei count vs DMSO), 5 days (fraction); higher = more cells survive
Dabrafenib = compound: CC(C)(C)c1nc(-c2cccc(NS(=O)(=O)c3c(F)cccc3F)c2F)c(-c2ccnc(N)n2)s1 [Dabrafenib]
Outline: (§1)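 Viability was defined as treated-well nuclei divided by vehicle-well nuclei, with the median taken over replicate plates. Cells from lung cancer lines sat overnight at 37 °C in 1536-well plates, received five √10-spaced library-drug doses by pinning on vehicle-anchored plates, and grew 5 days without medium change before one-step fixation, permeabilisation and Hoechst staining, 4× imaging and MetaXpress nuclear counts. Only plates with control CV under 25% and at least one doubling were kept.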

VX-702 = compound: NC(=O)c1ccc(N(C(N)=O)c2c(F)cccc2F)nc1-c1ccc(F)cc1F [VX-702]
Outline: as §1

Dabrafenib + Alpelisib = compound: CC(C)(C)c1nc(-c2cccc(NS(=O)(=O)c3c(F)cccc3F)c2F)c(-c2ccnc(N)n2)s1 [Dabrafenib] + Cc1nc(NC(=O)N2CCC[C@H]2C(N)=O)sc1-c1ccnc(C(C)(C)C(F)(F)F)c1 [Alpelisib] (partner 2 µM)
Outline: (§2)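 Values are medians from duplicate plates. Each reflects relative viability, defined as the nuclei count of treated wells over that of vehicle wells. Lung cancer cell lines in 1536-well plates were pin-tool dosed one day after seeding with one drug alone or with a fixed anchor-drug dose plus five library-drug doses (not always all listed) in √10 steps, then fixed, stained and imaged at 4× after 5 days.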

VX-702 + Bortezomib = compound: NC(=O)c1ccc(N(C(N)=O)c2c(F)cccc2F)nc1-c1ccc(F)cc1F [VX-702] + CC(C)C[C@H](NC(=O)[C@H](Cc1ccccc1)NC(=O)c1cnccn1)B(O)O [Bortezomib] (partner 0.002 µM)
Outline: as §2

Cell Line | relative viability (Dabrafenib; 0.003 µM) | relative viability (Dabrafenib; 0.009487 µM) | relative viability (Dabrafenib; 0.03 µM) | relative viability (Dabrafenib; 0.09487 µM) | relative viability (Dabrafenib; 0.3 µM) | relative viability (VX-702; 0.02 µM) | relative viability (VX-702; 0.2 µM) | relative viability (VX-702; 0.6325 µM) | relative viability (VX-702; 2 µM) | relative viability (Dabrafenib + Alpelisib; first compound 0.003 µM) | relative viability (Dabrafenib + Alpelisib; first compound 0.009487 µM) | relative viability (Dabrafenib + Alpelisib; first compound 0.03 µM) | relative viability (Dabrafenib + Alpelisib; first compound 0.09487 µM) | relative viability (Dabrafenib + Alpelisib; first compound 0.3 µM) | relative viability (VX-702 + Bortezomib; first compound 0.02 µM) | relative viability (VX-702 + Bortezomib; first compound 0.2 µM) | relative viability (VX-702 + Bortezomib; first compound 0.6325 µM) | relative viability (VX-702 + Bortezomib; first compound 2 µM)
NCI-H1299 | 0.991 | 0.988 | 0.963 | 0.92 | 0.842 | 1.09 | 0.994 | 1.07 | 1.12 | 1.14 | 0.982 | 1.03 | 0.87 | 0.757 | 1.09 | 1.03 | 1.12 | 1.09
HCC-15 | 0.942 | 1.04 | 1.04 | 0.928 | 0.921 | 0.989 | 0.982 | 1.08 | 1.03 | 0.831 | 0.971 | 0.909 | 0.912 | 0.893 | 1.07 | 0.929 | 1.09 | 1.05
NCI-H727 | – | 0.998 | 0.782 | 0.902 | 1.1 | 1.09 | 1 | 0.84 | 1.04 | – | 0.757 | 0.519 | 0.647 | 0.638 | 0.657 | 0.743 | 0.939 | 0.976
EPLC-272H | 0.509 | 1.01 | 0.971 | 0.785 | 0.964 | 1.03 | 0.827 | 1.02 | 1.01 | – | 1.1 | 0.843 | 0.962 | 0.864 | 0.897 | 0.836 | 1.05 | 0.956
SW 1573 | 0.899 | 0.916 | 1.06 | 0.989 | 1.05 | 1.08 | 0.923 | 0.899 | 1.03 | 0.765 | 0.931 | 0.74 | 0.663 | 0.669 | 1.02 | 0.902 | 0.871 | 1
LXF-289 | 0.923 | 1 | 1.16 | 0.944 | 1.14 | 1.01 | 1.01 | 1.08 | 1.02 | 1.02 | 1.03 | 1.02 | 0.991 | 1.06 | 1.03 | 1.03 | 0.998 | 1.02
NCI-H2023 | 0.877 | 1.01 | 1.01 | 0.948 | 1.07 | 1.03 | 1.04 | 1.01 | 1.18 | 0.668 | 0.614 | 0.635 | 0.614 | 0.801 | 0.862 | 0.946 | 1.06 | 0.947
HARA | 0.737 | 1 | – | 0.922 | 1.12 | 0.964 | 0.897 | 0.965 | 0.969 | 0.669 | 0.89 | 0.646 | 0.732 | 1.09 | 0.605 | 1.05 | 1.17 | 1.34
NCI-H1703 | 1 | 1.12 | 0.887 | 0.843 | 1.14 | 0.936 | 0.91 | 0.849 | 1.21 | 0.356 | 0.309 | 0.291 | 0.379 | 0.362 | 0.286 | 0.37 | 0.255 | 0.289
